We go through six compounds from patent publication US7943629B2, “Sulphimides as protein kinase inhibitors” (Bayer Schering Pharma AG, priority 2006, dated 2011).

In one assay the target is T1, Aurora-C (Homo sapiens, UniProt Q9UQB9).
T1 construct: made in house; host or cells: transiently transfected HEK293 cells
T1 sequence (Q9UQB9 1-309): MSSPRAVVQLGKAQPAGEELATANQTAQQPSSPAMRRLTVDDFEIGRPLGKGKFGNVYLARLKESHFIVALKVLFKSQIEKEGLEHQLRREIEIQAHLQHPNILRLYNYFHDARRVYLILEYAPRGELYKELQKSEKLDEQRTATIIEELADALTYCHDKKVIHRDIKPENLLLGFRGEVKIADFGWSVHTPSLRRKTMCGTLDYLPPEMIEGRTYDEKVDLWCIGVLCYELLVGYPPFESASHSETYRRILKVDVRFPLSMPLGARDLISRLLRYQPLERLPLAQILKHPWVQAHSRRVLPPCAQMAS
The assay can be described thus: Aurora-C kinase assay. The class given is biochemical. Conditions: for pIC50: 3 μM ATP, 22° C., 90 min; for inhibition of Aurora C kinase (in words): summary of Tab. 1. The procedure: Recombinant Aurora-C protein was expressed in transiently transfected HEK293 cells and then purified. The kinase substrate used was the biotinylated peptide having the amino acid sequence biotin-FMRLRRLSTKYRT, which was purchased from Jerini AG in Berlin.
Aurora-C [5 nM in the test mixture, test volume 5 μl] was incubated in the presence of various concentrations of test substances (0 μM and 10 measurement points within the range 0.001-20 μM in duplicate) in assay buffer [25 mM HEPES pH 7.4, 0.5 mM MnCl2, 0.1 mM Na ortho-vanadate, 2.0 mM dithiothreitol, 0.05% bovine serum albumin (BSA), 0.01% Triton X-100, 3 μM adenosine trisphosphate (ATP), 0.67 nCi/μl gamma-^33P-ATP, 2.0 μM substrate peptide biotin-FMRLRRLSTKYRT, 1.0% dimethyl sulphoxide] at 22° C. for 90 min. The reaction was stopped by adding 12.5 μl of an EDTA/detection solution [16 mM EDTA, 40 mM ATP, 0.08% Triton X-100, 4 mg/ml PVT streptavidin SPA beads (from Amersham)]. After incubation for 10 minutes, the SPA beads were pelleted by centrifugation at 1000×G for 10 minutes. Measurement took place in a PerkinElmer Topcount scintillation counter. The measured data were normalized to 0% inhibition (enzyme reaction without inhibitor) and 100% inhibition (enzyme reaction in the presence of 0.1 μM staurosporine (from Sigma)). The IC50 values were determined by means of a 4-parameter fit using the company's own software.

The next assay deals with T2, KDR (VEGFR2) (Homo sapiens, UniProt P35968).
T2 construct: made in house; host or cells: E. coli
T2 sequence (P35968 20-1356, species assumed): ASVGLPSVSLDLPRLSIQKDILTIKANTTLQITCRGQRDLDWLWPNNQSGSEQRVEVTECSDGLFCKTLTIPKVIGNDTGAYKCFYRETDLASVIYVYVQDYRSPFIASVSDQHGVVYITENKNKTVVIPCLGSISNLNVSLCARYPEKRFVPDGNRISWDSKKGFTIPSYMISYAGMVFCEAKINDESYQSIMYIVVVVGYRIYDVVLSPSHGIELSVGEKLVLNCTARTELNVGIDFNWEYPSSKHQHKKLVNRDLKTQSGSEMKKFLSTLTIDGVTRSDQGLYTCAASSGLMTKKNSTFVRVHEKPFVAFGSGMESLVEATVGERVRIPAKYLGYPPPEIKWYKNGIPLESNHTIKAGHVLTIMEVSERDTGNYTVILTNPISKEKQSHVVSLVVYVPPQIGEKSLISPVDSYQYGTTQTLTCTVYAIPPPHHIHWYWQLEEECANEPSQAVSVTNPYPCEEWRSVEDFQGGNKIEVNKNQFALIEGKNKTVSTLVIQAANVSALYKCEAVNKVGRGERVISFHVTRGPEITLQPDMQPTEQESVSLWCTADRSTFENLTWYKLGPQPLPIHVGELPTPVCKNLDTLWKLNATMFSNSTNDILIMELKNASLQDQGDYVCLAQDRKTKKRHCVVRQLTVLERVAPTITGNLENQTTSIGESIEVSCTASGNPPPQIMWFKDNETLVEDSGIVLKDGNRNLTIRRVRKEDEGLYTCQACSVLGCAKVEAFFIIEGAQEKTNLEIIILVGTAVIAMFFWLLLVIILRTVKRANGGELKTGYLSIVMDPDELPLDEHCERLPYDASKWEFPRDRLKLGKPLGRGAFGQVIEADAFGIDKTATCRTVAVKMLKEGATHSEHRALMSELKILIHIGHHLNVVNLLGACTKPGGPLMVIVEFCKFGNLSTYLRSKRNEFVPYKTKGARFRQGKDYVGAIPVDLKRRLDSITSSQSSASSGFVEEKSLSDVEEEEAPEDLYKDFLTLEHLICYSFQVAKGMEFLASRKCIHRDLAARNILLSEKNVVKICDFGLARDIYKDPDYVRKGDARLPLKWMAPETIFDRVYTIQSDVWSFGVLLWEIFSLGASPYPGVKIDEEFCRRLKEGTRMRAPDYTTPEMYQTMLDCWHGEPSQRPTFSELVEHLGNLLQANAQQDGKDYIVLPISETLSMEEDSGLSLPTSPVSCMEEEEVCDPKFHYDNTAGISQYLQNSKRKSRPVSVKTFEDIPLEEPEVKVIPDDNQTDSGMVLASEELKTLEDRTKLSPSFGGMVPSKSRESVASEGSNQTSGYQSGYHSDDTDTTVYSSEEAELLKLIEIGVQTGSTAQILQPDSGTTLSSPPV
The assay can be described thus: KDR kinase assay. It counts as biochemical. Conditions: 10 μM ATP, 22° C., 45 min, HTRF. The procedure: Recombinant KDR protein was expressed in E. coli and then purified. The kinase substrate used was the biotinylated peptide having the amino acid sequence biotin-DFGLARDMYDKEYYSVG, which was purchased from Biosynthan. KDR [test volume 5 μl] was incubated in the presence of various concentrations of test substances (0 μM, and 10 measurement points within the range 0.001-20 μM in duplicate) in assay buffer [50 mM HEPES pH 7.0, 25.0 mM MgCl2, […], 0.1 mM Na ortho-vanadate, 1.0 mM dithiothreitol, 0.001% NP40, 10 μM ATP, 0.03 μM substrate peptide […], 1.0% dimethyl sulphoxide] at 22° C. for 45 min. The reaction was stopped by adding 5 μl of an EDTA/detection solution [50 mM HEPES pH 7.5, 125 mM EDTA, 0.2% BSA, 0.1 μM streptavidin-XLent (from CisBio), 2 nM PT66-Eu (from PerkinElmer)]. The fluorescence emission at 620 nm and 665 nm after excitation with light of the wavelength 350 nm was measured in a Rubystar HTRF instrument from BMG Labsystems.
The measured data (ratio of emission 665 divided by emission 620 multiplied by 10 000) were normalized to 0% inhibition (enzyme reaction without inhibitor) and 100% inhibition (all assay components apart from enzyme). The IC50 values were determined by means of a 4-parameter fit using the company's own software.
(In general: Time-resolved FRET reads energy transfer from a long-lived donor to a nearby acceptor.)

A further assay has as its system MCF7 breast tumour cells. Description: MCF7 proliferation assay. The class given is cell-based, human. Conditions: for pIC50: Homo sapiens, MCF7, 96 h, 4 days incubation, crystal violet staining; for antiproliferative activity, MCF7 (in words): summary of Tab. 2. As to the method:
Cultivated human MCF7 breast tumour cells (ATCC HTB-22) were plated out in a density of 5000 cells/measurement point in 200 μl of growth medium (RPMI1640, 10% foetal calf serum, 2 mU/mL insulin, 0.1 nM oestradiol) in a 96-well multititre plate. After 24 hours, the cells from a plate (zero plate) were stained with crystal violet (see below), while the medium in the other plates was replaced by fresh culture medium (200 μl) to which the test substances had been added in various concentrations (0 μM, and in the range 0.1-30 μM; the final concentration of the solvent dimethyl sulphoxide was 0.5%). The cells were incubated in the presence of the test substances for 4 days. The cell proliferation was determined by staining the cells with crystal violet: the cells were fixed by adding 20 μl/measurement point of an 11% strength glutaraldehyde solution at room temperature for 15 min. After the fixed cells had been washed three times with water, the plates were dried at room temperature. The cells were stained by adding 100 μl/measurement point of a 0.1% strength crystal violet solution (pH adjusted to pH 3 by adding acetic acid). After the stained cells had been washed three times with water, the plates were dried at room temperature. The dye was dissolved by adding 100 μl/measurement point of a 10% strength acetic acid solution, and the extinction was determined by photometry at a wavelength of 595 nm. The percentage change in cell growth was calculated by normalizing the measurements to the extinctions of the zero point plate (=0%) and the extinction of the untreated (0 μM) cells (=100%). The IC50 values were determined by means of a 4-parameter fit using the company's own software.

Another assay concerns the target T3, CDK2/CycE (Homo sapiens, UniProt P24941).
T3 construct: GST; purchased ProQinase GmbH, Freiburg; host or cells: baculovirus-infected insect cells (Sf9)
Description: CDK2/CycE kinase assay. It counts as biochemical. Conditions: for pIC50: 0.5 μM ATP, histone IIIS, 22° C., 10 min; for inhibition of CDK2 kinase (in words): summary of Tab. 1. The procedure:
Recombinant CDK2- and CycE-GST fusion proteins, purified from baculovirus-infected insect cells (Sf9), were purchased from ProQinase GmbH, Freiburg. The histone IIIS used as kinase substrate was purchased from Sigma.
(§1) CDK2/CycE (50 ng/measurement point) was incubated in the presence of various concentrations of test substances (0 μM, and within the range 0.01-100 μM) in assay buffer [50 mM Tris/HCl pH 8.0, 10 mM MgCl2, 0.1 mM Na ortho-vanadate, 1.0 mM dithiothreitol, 0.5 μM ATP, 10 μg/measurement point histone IIIS, 0.2 μCi/measurement point ^33P-gamma-ATP, 0.05% NP40, 1.25% dimethyl sulphoxide] at 22° C. for 10 min. The reaction was stopped by adding EDTA solution (250 mM, pH 8.0, 15 μl/measurement point).
15 μl of each reaction mixture were loaded onto P30 filter strips (from Wallac), and non-incorporated ^33P-ATP was removed by washing the filter strips three times in 0.5% strength phosphoric acid for 10 min each time.
After the filter strips had been dried at 70° C. for 1 hour, the filter strips were covered with scintillator strips (MeltiLex™ A, from Wallac) and baked at 90° C. for 1 hour. The amount of incorporated ^33P (substrate phosphorylation) was determined by scintillation measurement in a gamma radiation counter (Wallac).

Another assay deals with T4, CDK1/CycB (Homo sapiens, UniProt P06493).
T4 construct: GST; purchased ProQinase GmbH, Freiburg; host or cells: baculovirus-infected insect cells (Sf9)
T4 sequence (P06493 whole entry): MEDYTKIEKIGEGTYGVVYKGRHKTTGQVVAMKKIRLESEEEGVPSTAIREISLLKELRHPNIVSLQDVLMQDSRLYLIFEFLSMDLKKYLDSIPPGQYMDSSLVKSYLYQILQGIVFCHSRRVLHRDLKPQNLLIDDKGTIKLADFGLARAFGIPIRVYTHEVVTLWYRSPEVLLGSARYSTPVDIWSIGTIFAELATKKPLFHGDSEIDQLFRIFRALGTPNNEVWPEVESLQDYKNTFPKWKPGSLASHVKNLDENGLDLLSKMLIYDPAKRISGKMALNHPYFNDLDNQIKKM
T4 sequence (P14635 whole entry partner): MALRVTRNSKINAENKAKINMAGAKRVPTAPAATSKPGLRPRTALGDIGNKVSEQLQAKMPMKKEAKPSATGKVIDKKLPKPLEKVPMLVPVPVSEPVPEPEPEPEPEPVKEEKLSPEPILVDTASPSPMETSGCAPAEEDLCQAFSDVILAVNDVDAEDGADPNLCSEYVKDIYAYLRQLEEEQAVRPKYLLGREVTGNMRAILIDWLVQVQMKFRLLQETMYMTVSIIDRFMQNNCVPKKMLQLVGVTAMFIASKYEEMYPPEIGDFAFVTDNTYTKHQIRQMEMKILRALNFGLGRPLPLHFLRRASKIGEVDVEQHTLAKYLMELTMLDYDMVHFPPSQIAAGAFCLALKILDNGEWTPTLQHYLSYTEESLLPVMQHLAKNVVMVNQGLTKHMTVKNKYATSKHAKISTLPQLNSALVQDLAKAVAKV
Description: CDK1/CycB kinase assay. It counts as biochemical. The settings on record: 0.5 μM ATP, histone IIIS, 22° C., 10 min. As to the method:
as §1, with “Recombinant CDK1- and CycB-GST fusion proteins, purified from baculovirus-infected insect cells (Sf9), were purchased from ProQinase GmbH, Freiburg. The histone IIIS used as kinase substrate can be purchased from Sigma. CDK1/CycB (200” for “CDK2/CycE (50”
15 μl of each reaction mixture were loaded onto P30 filter strips (from Wallac), and non-incorporated ^33P-ATP was removed by washing the filter strips three times in 0.5% strength phosphoric acid for 10 min each time. After the filter strips had been dried at 70° C. for 1 hour, the filter strips were covered with scintillator strips (MeltiLex™ A, from Wallac) and baked at 90° C. for 1 hour. The amount of incorporated ^33P (substrate phosphorylation) was determined by scintillation measurement in a gamma radiation counter (Wallac).

pIC50: −log10 of the molar value. A value given as a limit tells only on which side of the number the result lay.

Turning to `Cc1ccc(S(=O)(=O)N=S(C)c2ccc(Nc3ncc(Br)c(N[C@H](C)CO)n3)cc2)cc1` (mixture of isomers) [Example 8, (RS)—S-{4-[(5-Bromo-4-{[(R)-2-hydroxy-1-methylethyl]amino}pyrimidin-2-yl)-amino]phenyl}-S-methyl-N-(tolylsulphonyl)sulphimide], the pIC50 – broadly, −log10 of the IC50, conventionally taken in molar units – was 6.44 on Aurora-C; 7.66 against KDR (VEGFR2); 6.05 in the assay with MCF7 breast tumour cells; 7.00 on CDK2/CycE; 6.21 against CDK1/CycB. Moreover, the “inhibition of Aurora C kinase (in words)” value at Aurora-C was “inhibits”.
In the case of `Cc1ccc(S(=O)(=O)N=S(C)c2ccc(Nc3ncc(Br)c(N[C@H](C)C(C)(C)O)n3)cc2)cc1` (mixture of isomers) [Example 9, (RS)—S-{4-[(5-Bromo-4-{[(R)-2-hydroxy-1,2-dimethylpropyl]amino}pyrimidin-2-yl)amino]phenyl}-S-methyl-N-(tolylsulphonyl)sulphimide], the pIC50 against Aurora-C was 6.44; at KDR (VEGFR2) it was 7.44; in the assay with MCF7 breast tumour cells it was over 7.00; against CDK2/CycE it was 7.55; against CDK1/CycB it was 6.82. The “antiproliferative activity, MCF7 (in words)” value (shortened to “antiproliferative activity”) in the assay on MCF7 breast tumour cells was “excellent antiproliferative activity”. In addition, the “inhibition of CDK2 kinase (in words)” value on CDK2/CycE is “shows inhibition”.
For `C[C@@H](Nc1nc(Nc2ccc(S(C)=NS(=O)(=O)c3cnccc3Cl)cc2)ncc1Br)C(C)(C)O` (mixture of isomers) [Example 11, (RS)—S-{4-[(5-Bromo-4-{[(R)-2-hydroxy-1,2-dimethylpropyl]amino}pyrimidin-2-yl)amino]phenyl}-N-[(4-chloro-3-pyridyl)sulphonyl]-S-methylsulphimide], the pIC50 on Aurora-C is 6.43; against KDR (VEGFR2), 7.36; in the assay with MCF7 breast tumour cells, over 7.00; at CDK2/CycE, 7.85; at CDK1/CycB, 7.05. The “inhibition of Aurora C kinase (in words)” value at Aurora-C is given as “active”. The “inhibition of CDK2 kinase (in words)” value at CDK2/CycE is recorded as “active”.
Take `COc1ccc(S(=O)(=O)N=S(C)c2ccc(Nc3ncc(Br)c(N[C@H](C)C(C)(C)O)n3)cc2)cc1` (mixture of isomers) [Example 12, (RS)—S-{4-[(5-Bromo-4-{[(R)-2-hydroxy-1,2-dimethylpropyl]amino}pyrimidin-2-yl)amino]phenyl}-N-[(4-methoxyphenyl)sulphonyl]-S-methylsulphimide]: the pIC50 against Aurora-C was 6.32; against KDR (VEGFR2), 7.42; in the assay on MCF7 breast tumour cells it was 6.70; against CDK2/CycE it was 7.41; on CDK1/CycB, 6.80.
In the case of `C[C@@H](Nc1nc(Nc2ccc(S(C)=NS(=O)(=O)Cc3ccccc3)cc2)ncc1Br)C(C)(C)O` (mixture of isomers) [Example 13, (RS)—N—(Benzylsulphonyl)-S-{4-[(5-bromo-4-{[(R)-2-hydroxy-1,2-dimethylpropyl]-amino}pyrimidin-2-yl)amino]phenyl}-S-methylsulphimide], the pIC50 against Aurora-C is 6.18; against KDR (VEGFR2), 7.82; in the assay with MCF7 breast tumour cells, 6.96; against CDK2/CycE it was 7.55; against CDK1/CycB it was 6.85. Moreover, the “antiproliferative activity” value with MCF7 breast tumour cells is “excellent antiproliferative activity”.
As to `C[C@@H](Nc1nc(Nc2ccc(S(C)=NS(=O)(=O)C(F)(F)F)cc2)ncc1Br)C(C)(C)O` (mixture of isomers) [Example 14, (RS)—S-{4-[(5-Bromo-4-{[(R)-2-hydroxy-1,2-dimethylpropyl]amino}pyrimidin-2-yl)amino]phenyl}-S-methyl-N-[(trifluoromethyl)sulphonyl]sulphimide], the negative logarithm of the IC50 (pIC50) is 6.00 at Aurora-C; 7.15 at KDR (VEGFR2); 6.96 in the assay on MCF7 breast tumour cells; 7.41 at CDK2/CycE; 6.92 at CDK1/CycB. Moreover, the “antiproliferative activity” value in the assay with MCF7 breast tumour cells is “excellent antiproliferative activity”.
